According to patent US20040009899A1, “Treating dominant disorders” (priority 2002, published 2004):

Tests used:
[1] = tested on: endogenous mouse Hdh allele; assay: Western immunoblot of endogenous mouse htt expression in PNA-treated R6/1 mice; format: in vivo; conditions: any tissue examined (striatum, liver), any tested time point (4 or 6 days)
Procedure: Cannulation and microsurgery—method 1: B6CBA, R6/1, and R6/2 mice were obtained from The Jackson Laboratory (Bar Harbor, Me.). Mice were anesthetized via intraperitoneal (i.p.) injection with 100 mg/kg of a ketamine/xylazine solution containing 8 mg/mL ketamine and 1 mg/mL xylazine in 0.9% saline. Once anesthetized, each mouse was cannulated. Each anesthetized mouse was placed in a Stoelting Stereotaxic Frame with a mouse adapter (Stoelting Instruments, Wood Dale, Ill.). An incision was made using a scalpel, and the skin and tissue were pulled back with swabs to reveal the skull. The cannulation site was positioned for optimum access to the ventricle, at coordinates AP −0.2 mm, Horiz −1 mm from bregma. A cannula entry port and two bone screw ports were opened in the skull using a Dremel Flex Shaft Drill (Stoelting Instruments) with a 2.1 mm burr for the guide cannula port and a 0.7 mm burr for the bone screws (Fine Science Tools, Foster City, Calif.). Two 4.0 mm long bone screws (0.85 diameter) were placed far enough into the bone screw ports to fasten securely. […]
Following the treatment period, mice were anesthetized with ether and sacrificed by cervical dislocation. […] Following centrifugation, the supernatants were removed and protein concentrations were quantified by Bradford assays using a BSA standard. […]

GAPDH = assay: Western immunoblot of GAPDH (non-targeted gene) in PNA-treated R6/1 mice; format: in vivo, mouse; conditions: any animal tested
Procedure: Following the treatment period, mice were anesthetized with ether and sacrificed by cervical dislocation. Whole brains and livers were removed and placed in 0.9% saline. Striatum tissue was dissected from whole brains, and liver tissue was finely minced. The tissues were placed in separate 2 mL microfuge tubes on dry ice and then suspended in 20 volumes of RIPA buffer (50 mM Tris pH 8, 150 mM NaCl, 1 mM EDTA, 1 mM EGTA, 0.5% sodium deoxycholate, 0.1% SDS, 1% TritonX-100, 2 μg/mL leupeptin, 2 μg/mL aprotinin, 1 μg/mL pepstatin, 1 mM phenylmethylsulfonylfluoride) per gram of tissue. Suspended tissues were homogenized by sonication, and the homogenates were clarified by centrifugation at 12,000×g for 20 minutes at 4° C. Following centrifugation, the supernatants were removed and protein concentrations were quantified by Bradford assays using a BSA standard.
Immunoblotting: Supernatants from the tissue homogenates were mixed with 1/6 volume of 6×SDS sample buffer (350 mM Tris pH 6.8, 10% SDS, 30% glycerol, 15% 2-mercaptoethanol, 0.012% bromophenol blue). Equal amounts of protein were directly loaded onto 10% acrylamide/0.05% bisacrylamide gels without heat denaturation. […] Protein bands were detected on film by chemiluminescence. […]

mice = assay: Toxicity observation (behavior, weight, motor function) during intraventricular PNA treatment; format: in vivo; conditions: 1.0 μL (25 μg/μL) into the ventricle every other day
Procedure: Animal treatment and tissue preparation: Aliquots of 1.0 μL (25 μg/μL) of a PNA oligomer specific for the expanded human HD allele (HDs) or a scrambled control PNA (HDscr) were administered into the ventricle every other day by injection via the cannula.

## HDscr: scrambled control PNA oligomer, 5′-GCAGCGGCGGTCCT-3′ (SEQ ID NO:4) (all peptide nucleic acid (PNA)) [reference compound]
[1]
  effect on expression of the endogenous mouse Hdh allele: Neither HDs nor HDscr had any effect
GAPDH
  inhibition of non-targeted genes such as GAPDH: No measurable inhibition
mice
  toxicity as measured by weight or motor function relative to untreated animals: no effects of toxicity
